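Tested at 5 concentrations; 48 h exposure; 96-well plates; endpoints linearly interpolated, else capped at highest concentration. TGI marks complete inhibition of growth.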
Experiments:
Assay in all cases: NCI anticancer screen, dose series, 48 h
NCI/ADR-RES ovarian = tested on: NCI/ADR-RES ovarian
SF-268 CNS = tested on: SF-268 CNS
UO-31 renal = tested on: UO-31 renal
A498 renal = tested on: A498 renal
HL-60(TB) leukemia = tested on: HL-60(TB) leukemia
T-47D breast = tested on: T-47D breast
CAKI-1 renal = tested on: CAKI-1 renal
HOP-62 NSCLC = tested on: HOP-62 NSCLC
CCRF-CEM leukemia = tested on: CCRF-CEM leukemia
M14 melanoma = tested on: M14 melanoma
HCT-116 colon = tested on: HCT-116 colon
RXF 393 renal = tested on: RXF 393 renal
OVCAR-5 ovarian = tested on: OVCAR-5 ovarian
SNB-19 CNS = tested on: SNB-19 CNS
RPMI-8226 leukemia = tested on: RPMI-8226 leukemia
MALME-3M melanoma = tested on: MALME-3M melanoma
IGROV1 ovarian = tested on: IGROV1 ovarian
786-0 renal = tested on: 786-0 renal
EKVX NSCLC = tested on: EKVX NSCLC
MDA-MB-435 = tested on: MDA-MB-435
HS 578T breast = tested on: HS 578T breast
K-562 leukemia = tested on: K-562 leukemia
HCC-2998 colon = tested on: HCC-2998 colon
HOP-92 NSCLC = tested on: HOP-92 NSCLC
SW-620 colon = tested on: SW-620 colon
HCT-15 colon = tested on: HCT-15 colon
MCF7 breast = tested on: MCF7 breast
MDA-N = tested on: MDA-N
A549 NSCLC = tested on: A549 NSCLC
DU-145 prostate = tested on: DU-145 prostate
SN12C renal = tested on: SN12C renal
OVCAR-4 ovarian = tested on: OVCAR-4 ovarian
SK-MEL-2 melanoma = tested on: SK-MEL-2 melanoma
ACHN renal = tested on: ACHN renal
NCI-H23 lung = tested on: NCI-H23 lung
SNB-75 CNS = tested on: SNB-75 CNS
SR leukemia = tested on: SR leukemia
MDA-MB-231 breast = tested on: MDA-MB-231 breast
TK-10 renal = tested on: TK-10 renal
UACC-257 melanoma = tested on: UACC-257 melanoma
OVCAR-3 ovarian = tested on: OVCAR-3 ovarian
HT29 colon = tested on: HT29 colon
OVCAR-8 ovarian = tested on: OVCAR-8 ovarian
LOX IMVI melanoma = tested on: LOX IMVI melanoma
PC-3 prostate = tested on: PC-3 prostate
BT-549 breast = tested on: BT-549 breast
UACC-62 melanoma = tested on: UACC-62 melanoma
U251 CNS = tested on: U251 CNS
NCI-H460 lung = tested on: NCI-H460 lung
MOLT-4 leukemia = tested on: MOLT-4 leukemia
SK-MEL-28 melanoma = tested on: SK-MEL-28 melanoma
SK-MEL-5 melanoma = tested on: SK-MEL-5 melanoma
KM12 colon = tested on: KM12 colon
SK-OV-3 ovarian = tested on: SK-OV-3 ovarian
COLO 205 colon = tested on: COLO 205 colon
SF-539 CNS = tested on: SF-539 CNS
SF-295 CNS = tested on: SF-295 CNS
NCI-H522 lung = tested on: NCI-H522 lung
NCI-H226 lung = tested on: NCI-H226 lung

In the case of `O=c1c(Cc2c(O)ccc3ccccc23)nnc2sc(-c3nn4c(=O)c(Cc5c(O)ccc6ccccc56)nnc4s3)nn12`, the TGI (NCI/ADR-RES ovarian) is reported as greater than 100 µM, the TGI (SF-268 CNS) is reported as greater than 100 µM and the TGI (UO-31 renal) is reported as greater than 100 µM. It also gave a TGI (A498 renal) greater than 100 µM, a TGI (HL-60(TB) leukemia) greater than 100 µM and a TGI (T-47D breast) greater than 100 µM. It also gave a TGI (CAKI-1 renal) greater than 100 µM, a TGI (HOP-62 NSCLC) greater than 100 µM and a TGI (CCRF-CEM leukemia) of 96.3 µM. It also gave a TGI (M14 melanoma) greater than 100 µM, a TGI (HCT-116 colon) greater than 100 µM and a TGI (RXF 393 renal) of 84.4 µM. For the same molecule, the TGI (OVCAR-5 ovarian) was greater than 100 µM, the TGI (SNB-19 CNS) was greater than 100 µM and the TGI (RPMI-8226 leukemia) was greater than 100 µM. It also gave a TGI (MALME-3M melanoma) greater than 100 µM, a TGI (IGROV1 ovarian) greater than 100 µM and a TGI (786-0 renal) greater than 100 µM. It also gave a TGI (EKVX NSCLC) greater than 100 µM, a TGI (MDA-MB-435) greater than 100 µM and a TGI (HS 578T breast) greater than 100 µM. The TGI (K-562 leukemia) was greater than 100 µM, the TGI (HCC-2998 colon) was greater than 100 µM and the TGI (HOP-92 NSCLC) was greater than 100 µM. For the same molecule, the TGI (SW-620 colon) was greater than 100 µM, the TGI (HCT-15 colon) was greater than 100 µM and the TGI (MCF7 breast) was greater than 100 µM. The TGI (MDA-N) was greater than 100 µM, the TGI (A549 NSCLC) was greater than 100 µM and the TGI (DU-145 prostate) was greater than 100 µM. The TGI (SN12C renal) was greater than 100 µM, the TGI (OVCAR-4 ovarian) was greater than 100 µM and the TGI (SK-MEL-2 melanoma) was 40.3 µM. The TGI (ACHN renal) was greater than 100 µM, the TGI (NCI-H23 lung) was greater than 100 µM and the TGI (SNB-75 CNS) was 39.9 µM. The TGI (SR leukemia) was greater than 100 µM, the TGI (MDA-MB-231 breast) was greater than 100 µM and the TGI (TK-10 renal) was greater than 100 µM. It also gave a TGI (UACC-257 melanoma) greater than 100 µM, a TGI (OVCAR-3 ovarian) greater than 100 µM and a TGI (HT29 colon) greater than 100 µM. For the same molecule, the TGI (OVCAR-8 ovarian) was greater than 100 µM, the TGI (LOX IMVI melanoma) was greater than 100 µM and the TGI (PC-3 prostate) was greater than 100 µM. For the same molecule, the TGI (BT-549 breast) was greater than 100 µM, the TGI (UACC-62 melanoma) was greater than 100 µM and the TGI (U251 CNS) was greater than 100 µM.

In the case of `Cc1ccc(O)c(-c2cc(-c3cccc(Br)c3)on2)c1`, the TGI (NCI/ADR-RES ovarian) is reported as greater than 100 µM, the TGI (SF-268 CNS) is reported as 89.9 µM and the TGI (UO-31 renal) is reported as greater than 100 µM. For the same molecule, the TGI (A498 renal) was greater than 100 µM, the TGI (HL-60(TB) leukemia) was 81.9 µM and the TGI (T-47D breast) was greater than 100 µM. The TGI (CAKI-1 renal) was greater than 100 µM, the TGI (HOP-62 NSCLC) was greater than 100 µM and the TGI (CCRF-CEM leukemia) was greater than 100 µM. It also gave a TGI (NCI-H460 lung) greater than 100 µM, a TGI (MOLT-4 leukemia) greater than 100 µM and a TGI (M14 melanoma) greater than 100 µM. The TGI (HCT-116 colon) was 57.7 µM, the TGI (RXF 393 renal) was 35.7 µM and the TGI (OVCAR-5 ovarian) was greater than 100 µM. For the same molecule, the TGI (SNB-19 CNS) was greater than 100 µM, the TGI (RPMI-8226 leukemia) was 85.2 µM and the TGI (MALME-3M melanoma) was 68.9 µM. For the same molecule, the TGI (IGROV1 ovarian) was greater than 100 µM, the TGI (786-0 renal) was greater than 100 µM and the TGI (EKVX NSCLC) was greater than 100 µM. It also gave a TGI (MDA-MB-435) of 50 µM, a TGI (HS 578T breast) greater than 100 µM and a TGI (K-562 leukemia) greater than 100 µM. It also gave a TGI (HCC-2998 colon) of 53.2 µM, a TGI (HOP-92 NSCLC) greater than 100 µM and a TGI (SW-620 colon) of 46.7 µM. It also gave a TGI (SK-MEL-28 melanoma) of 52.8 µM, a TGI (HCT-15 colon) greater than 100 µM and a TGI (MCF7 breast) of 32.5 µM. The TGI (MDA-N) was 65.2 µM, the TGI (SK-MEL-5 melanoma) was 41.6 µM and the TGI (KM12 colon) was 47.2 µM. It also gave a TGI (A549 NSCLC) greater than 100 µM, a TGI (DU-145 prostate) greater than 100 µM and a TGI (SN12C renal) of 55.1 µM. It also gave a TGI (OVCAR-4 ovarian) of 34.6 µM, a TGI (SK-MEL-2 melanoma) of 56 µM and a TGI (ACHN renal) greater than 100 µM. It also gave a TGI (NCI-H23 lung) greater than 100 µM, a TGI (SNB-75 CNS) of 86.2 µM and a TGI (SR leukemia) of 99.4 µM. The TGI (MDA-MB-231 breast) was greater than 100 µM, the TGI (TK-10 renal) was 43.2 µM and the TGI (UACC-257 melanoma) was greater than 100 µM. It also gave a TGI (OVCAR-3 ovarian) of 51.7 µM, a TGI (HT29 colon) of 67.3 µM and a TGI (OVCAR-8 ovarian) of 67.3 µM. It also gave a TGI (LOX IMVI melanoma) of 31.5 µM, a TGI (PC-3 prostate) greater than 100 µM and a TGI (BT-549 breast) of 77.5 µM. It also gave a TGI (UACC-62 melanoma) of 78.1 µM, a TGI (U251 CNS) of 33.7 µM and a TGI (SK-OV-3 ovarian) of 68.6 µM. The TGI (COLO 205 colon) was 37.1 µM, the TGI (SF-539 CNS) was greater than 100 µM and the TGI (SF-295 CNS) was greater than 100 µM.

Work on `ClC(Cl)(Cl)C(N1CCN(c2ccccc2)CC1)N1CCN(c2ccccc2)CC1` yielded a TGI (NCI/ADR-RES ovarian) greater than 100 µM, a TGI (SF-268 CNS) greater than 100 µM and a TGI (UO-31 renal) greater than 100 µM. It also gave a TGI (A498 renal) greater than 100 µM, a TGI (T-47D breast) greater than 100 µM and a TGI (CAKI-1 renal) greater than 100 µM. The TGI (HOP-62 NSCLC) was greater than 100 µM, the TGI (NCI-H460 lung) was greater than 100 µM and the TGI (MOLT-4 leukemia) was greater than 100 µM. It also gave a TGI (M14 melanoma) greater than 100 µM, a TGI (HCT-116 colon) greater than 100 µM and a TGI (RXF 393 renal) greater than 100 µM. For the same molecule, the TGI (OVCAR-5 ovarian) was greater than 100 µM, the TGI (SNB-19 CNS) was greater than 100 µM and the TGI (RPMI-8226 leukemia) was greater than 100 µM. It also gave a TGI (MALME-3M melanoma) greater than 100 µM, a TGI (IGROV1 ovarian) greater than 100 µM and a TGI (786-0 renal) greater than 100 µM. The TGI (EKVX NSCLC) was greater than 100 µM, the TGI (MDA-MB-435) was greater than 100 µM and the TGI (HS 578T breast) was greater than 100 µM. The TGI (K-562 leukemia) was greater than 100 µM, the TGI (HOP-92 NSCLC) was greater than 100 µM and the TGI (SK-MEL-28 melanoma) was greater than 100 µM. It also gave a TGI (HCT-15 colon) greater than 100 µM, a TGI (MCF7 breast) greater than 100 µM and a TGI (NCI-H522 lung) greater than 100 µM. The TGI (MDA-N) was greater than 100 µM, the TGI (SK-MEL-5 melanoma) was greater than 100 µM and the TGI (KM12 colon) was greater than 100 µM. It also gave a TGI (A549 NSCLC) greater than 100 µM, a TGI (DU-145 prostate) greater than 100 µM and a TGI (SN12C renal) greater than 100 µM. For the same molecule, the TGI (OVCAR-4 ovarian) was greater than 100 µM, the TGI (SK-MEL-2 melanoma) was greater than 100 µM and the TGI (ACHN renal) was greater than 100 µM. It also gave a TGI (SNB-75 CNS) greater than 100 µM, a TGI (SR leukemia) greater than 100 µM and a TGI (MDA-MB-231 breast) greater than 100 µM. The TGI (TK-10 renal) was greater than 100 µM, the TGI (NCI-H226 lung) was greater than 100 µM and the TGI (UACC-257 melanoma) was greater than 100 µM. The TGI (HT29 colon) was greater than 100 µM, the TGI (OVCAR-8 ovarian) was greater than 100 µM and the TGI (LOX IMVI melanoma) was greater than 100 µM. The TGI (PC-3 prostate) was greater than 100 µM, the TGI (BT-549 breast) was greater than 100 µM and the TGI (UACC-62 melanoma) was greater than 100 µM. It also gave a TGI (U251 CNS) greater than 100 µM and a TGI (COLO 205 colon) greater than 100 µM.

From PubChem BioAssay (NCI)
